Patent publication US20210130826A1, “METHODS OF MODULATING ANTISENSE ACTIVITY” (IONIS PHARMACEUTICALS, INC., priority 2018, published 2021)

How the values were obtained:
Malat-1 = Malat-1 RNA by RT-qPCR in MHT cells; autophagy modulator, then oligonucleotide by free uptake; type: cell-based, mouse
Method: MHT cells (a mouse hepatocellular carcinoma cell line) were plated at 20,000 cells/well and treated with DMSO (control) or an autophagy modulator for 24 hours at the concentrations indicated in Table 2 below. 3-MA, BafA1, AZD8055, and leupeptin are […]. […] Fourteen hours after the addition of autophagy modulators, 10 μM of a modified control oligonucleotide or of a modified antisense oligonucleotide was added by free uptake for ten hours. The modified oligonucleotides, shown in Table 1 below, are 3-10-3 cEt gapmers in which every internucleoside linkage is a phosphorothioate internucleoside linkage. The three 5′-terminal nucleosides and the three 3′-terminal nucleosides of each oligonucleotide each comprise a cEt modified sugar moiety. The remaining ten nucleosides of each oligonucleotide each comprise an unmodified, 2′-deoxy sugar moiety.
Using the primer probe sets described in Table 3 below, RT-qPCR analysis was performed to detect RNA levels of Malat-1, shown in Table 4 and markers of autophagy, (Rab7, LAMP2, Atg7, ULK1, ULK2, Atg5, Beclin, and c-Jun), shown in Table 5. Results were normalized to cyclophilin A levels. To control for global effects of autophagy modulators on gene expression, Malat-1 RNA levels after treatment with an antisense oligonucleotide and an autophagy modulator were normalized to Malat-1 RNA levels in cells treated with control Compound No. 549148 and the same autophagy modulator.
MHT cells were plated at 20,000 cells/well and treated with DMSO (control) or an autophagy modulator for 24 hours, at the concentrations indicated Table 7 below. Fourteen hours after the addition of autophagy modulator, control or antisense oligonucleotides (see Table 6) were added at 1 μM, 2.5 μM, 5 μM, or 10 μM by free uptake for ten hours. The modified oligonucleotides, shown in Table 6 below, are 5-10-5 MOE gapmers in which every internucleoside linkage is a phosphorothioate internucleoside linkage. The five 5′-terminal nucleosides and the five 3′-terminal nucleosides of each oligonucleotide each comprise a 2′-MOE modified sugar moiety. The remaining ten nucleosides of each oligonucleotide each comprise an unmodified, 2′-deoxy sugar moiety.
RT-qPCR analysis was performed to detect RNA levels of Malat-1 using primer probe set 15877 (described in Example 1). In order to control for global effects of autophagy modulators on gene expression, Malat-1 RNA levels after treatment with an antisense oligonucleotide and an autophagy modulator were normalized to Malat-1 RNA levels in cells treated with control Compound No. 141923 and the same autophagy modulator. Each table below represents results from an individual assay.

LC3B = assay: Liver protein analysis in mice: LC3B II/I ratio; type: in vivo; conditions: Table 30; mouse liver 24 h; oligonucleotide 5 mg/kg (or PBS); Treatment AZD8055 5 mg/kg at 0, 12, 22 h
Method: (§1) The following experiments were performed to determine if the effects of autophagy modulators on antisense activity in vitro can be observed in vivo. Groups of 3-4 8-week-old male C57bl/6J mice were administered 5 mg/kg control oligonucleotide 141923, or 5 mg/kg antisense oligonucleotide 399462. Following administration of modified oligonucleotide, mice were administered 1% DMSO or 5 mg/kg AZD8055 in 1% DMSO at three time points over 24 hours: at the time of administration of the modified oligonucleotide, and 12 and 22 hours after administration of the modified oligonucleotide. A group of control mice was administered PBS at time 0 and 1% DMSO at 0, 12, and 22 hours. Mice were sacrificed at 24 hours after administration of the modified oligonucleotide and tissues were collected for analysis.
(§2) Autophagy activation was confirmed in livers by determining suppression of mTOR kinase activity (pS6/S6 levels), determining an increased LC3B II/I ratio (a marker for the formation of autophagosomes), and determining p62 degradation (related to the clearance of autophagosomes). Protein analysis was carried out on liver tissue using standard procedures. All proteins were normalized to α-tubulin. Phospho-S6 Ribosomal Protein (Ser240/244) (2215S), and S6 Ribosomal Protein (2217S) antibodies were obtained from Cell Signaling Technology. The antibody against LC3B (ab48394) was purchased from Abcam. […]

p62 = assay: Liver protein analysis in mice: p62; type: in vivo; conditions: Table 30; mouse liver 24 h; oligonucleotide 5 mg/kg (or PBS); Treatment AZD8055 5 mg/kg at 0, 12, 22 h
Method: as §1, §2

SMILES: COc1ccc(-c2ccc3c(N4CCOC[C@@H]4C)nc(N4CCOC[C@@H]4C)nc3n2)cc1CO [AZD8055]
- effect of autophagy modulator on modified oligonucleotide activity (in words) (Malat-1; MOE gapmer 399462, relative to DMSO): significantly enhanced modified oligonucleotide activity
- effect of autophagy modulator on antisense activity (in words) (Malat-1; cEt gapmer 556089, relative to DMSO): significantly enhanced antisense activity
- LC3B II/I ratio (LC3B): 2.3
- P62 (p62): 0.5
